Measured values taken from PubChem BioAssay AID180 (DTP/NCI, 2004).
“And” between values parts separate entries of the source, which are not always exact repeats. Equal entries are not always repeated.

Test system: BDF1 mice, Adenocarcinoma 755 s.c., tumor weight T/C
Assay: NCI In Vivo Anticancer Drug Screen. Data for tumor model Adenocarcinoma 755 (subcutaneous) in B6D2F1 (BDF1) mice
Details: endpoint: mean tumor weight, schedule: Q01DX011 (ip), higher = larger tumour
Summary of the method: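 Readout: T/C, i.e. treated-group measurement over vehicle-control measurement. Endpoint is survival or tumor size in tumor-bearing mice given compound.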

[1] = dose: 30.0 mg/kg/injection, vehicle: carboxymethylcellulose (CMC)
[2] = dose: 60.0 mg/kg/injection, vehicle: carboxymethylcellulose (CMC)
[3] = dose: 120.0 mg/kg/injection, vehicle: carboxymethylcellulose (CMC)
[4] = dose: 240.0 mg/kg/injection, vehicle: carboxymethylcellulose (CMC)

## CCSc1nc(Cl)cc(Sc2nc(N)nc3nc[nH]c23)n1
dose: 2.5 mg/kg/injection, vehicle: methylcellulose (MC)
  T/C: 84 % of control
dose: 5.0 mg/kg/injection, vehicle: methylcellulose (MC)
  T/C: 65 % of control
dose: 10.0 mg/kg/injection, vehicle: methylcellulose (MC)
  T/C: 80 % of control
dose: 12.5 mg/kg/injection, vehicle: carboxymethylcellulose (CMC)
  T/C: 82 % of control
dose: 15.0 mg/kg/injection, vehicle: methylcellulose (MC)
  T/C: 40 % of control
dose: 18.0 mg/kg/injection, vehicle: methylcellulose (MC)
  T/C: 6 % of control
dose: 25.0 mg/kg/injection, vehicle: carboxymethylcellulose (CMC)
  T/C: 69 % of control
dose: 36.0 mg/kg/injection, vehicle: methylcellulose (MC)
  T/C: 20 % of control
dose: 50.0 mg/kg/injection, vehicle: carboxymethylcellulose (CMC)
  T/C: 24 % of control
dose: 72.0 mg/kg/injection, vehicle: methylcellulose (MC)
  T/C: 16 % of control
dose: 100.0 mg/kg/injection, vehicle: carboxymethylcellulose (CMC)
  T/C: 1 % of control
dose: 144.0 mg/kg/injection, vehicle: methylcellulose (MC)
  T/C: 15 % of control
dose: 200.0 mg/kg/injection, vehicle: carboxymethylcellulose (CMC)
  T/C: 3 % of control

## CCCCNc1nc(N)nc2c1nnn2CCCC
dose: 62.0 mg/kg/injection, vehicle: methylcellulose (MC)
  T/C: 54 % of control
dose: 125.0 mg/kg/injection, vehicle: methylcellulose (MC)
  T/C: 78 % of control
dose: 250.0 mg/kg/injection, vehicle: methylcellulose (MC)
  T/C: 45 % of control

## COC1C(OC(=O)/C=C/C=C/C=C/C=C\C(=O)O)CCC2(CO2)C1C1(C)OC1CC=C(C)C (configuration not stated)
dose: 10.0 mg/kg/injection, vehicle: other
  T/C: 90 % of control
dose: 20.0 mg/kg/injection, vehicle: other
  T/C: 98 % of control
dose: 40.0 mg/kg/injection, vehicle: other
  T/C: 64 % of control
dose: 80.0 mg/kg/injection, vehicle: other
  T/C: 82 % of control
dose: 160.0 mg/kg/injection, vehicle: other
  T/C: 74 % of control

## O=C(Nc1nc2c(ncn2C2CC(OC(=O)c3ccccc3)C(COC(=O)c3ccccc3)O2)c(=O)[nH]1)c1ccccc1 (configuration not stated)
[1]
  T/C: 103 % of control
[2]
  T/C: 94 % of control
[3]
  T/C: 113 % of control
[4]
  T/C: 124 % of control

## c1ccc2cc(SCCCN3CCOCC3)ccc2c1
dose: 37.5 mg/kg/injection, vehicle: methylcellulose (MC)
  T/C: 90 % of control and 107 % of control
dose: 37.5 mg/kg/injection, vehicle: saline
  T/C: 115 % of control
dose: 75.0 mg/kg/injection, vehicle: methylcellulose (MC)
  T/C: 103 % of control
dose: 75.0 mg/kg/injection, vehicle: saline
  T/C: 59 % of control
dose: 150.0 mg/kg/injection, vehicle: methylcellulose (MC)
  T/C: 70 % of control
dose: 150.0 mg/kg/injection, vehicle: saline
  T/C: 20 % of control

## CSc1nc2c(=O)[nH]c(N)nc2n1C1OC(CO)C(O)C1O (configuration not stated)
[1]
  T/C: 88 % of control
[2]
  T/C: 98 % of control
[3]
  T/C: 91 % of control
[4]
  T/C: 47 % of control

## S=c1nc[nH]c2c1ncn2C1CCCCO1 (configuration not stated)
dose: 5.0 mg/kg/injection, vehicle: carboxymethylcellulose (CMC)
  T/C: 29 % of control
dose: 10.0 mg/kg/injection, vehicle: carboxymethylcellulose (CMC)
  T/C: 16 % of control
